The record followed here is publication PMC8167039, “A Comparative Study of Human and Zebrafish Pregnane X Receptor Activities of Pesticides and Steroids Using In Vitro Reporter Gene Assays” (Frontiers in Endocrinology, 2021).

Read-outs that look alike come from different tables or passages of the source.

One series addresses T1, hPXR (Homo sapiens, UniProt O75469).
T1 sequence (O75469 146-433 limits assumed): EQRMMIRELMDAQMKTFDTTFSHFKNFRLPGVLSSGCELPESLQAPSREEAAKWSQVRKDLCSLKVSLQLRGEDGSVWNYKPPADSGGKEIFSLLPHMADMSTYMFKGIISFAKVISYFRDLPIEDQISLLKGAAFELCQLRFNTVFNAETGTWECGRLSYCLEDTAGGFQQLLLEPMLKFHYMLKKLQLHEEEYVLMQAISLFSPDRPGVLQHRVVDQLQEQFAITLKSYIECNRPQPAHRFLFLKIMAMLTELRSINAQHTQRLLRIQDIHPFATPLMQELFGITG
As to the kind of experiment: HG5LN Gal4-hPXR luciferase reporter gene assay, agonism. How it is done:
(§1) The cell lines used in this study are listed in Supplementary Table 3 . The HG5LN, HG5LN Gal4-hPXR and HG5LN Gal4-zfPXR cell lines were previously described ([19]). Briefly, HeLa cells stably transfected with the GAL4RE5-βGlobin-Luc-SVNeo plasmid (HG5LN cell line) ([15]). HG5LN cells were stably transfected with the pSG5-GAL4(DBD)-hPXR(LBD)-puro or pSG5-GAL4(DBD)-zfPXR(LBD)-puro plasmids.
(§2) HG5LN cells were cultured in Dulbecco’s Modified Eagle Medium: Nutrient Mixture F-12 (D-MEM/F-12) containing phenol red and 1 g/L glucose and supplemented with 5% fetal bovine serum, 100 units/mL of penicillin and 100 µg/mL of streptomycin supplemented with 1 mg/mL geneticin in a 5% CO2 humidified atmosphere at 37°C. HG5LN GAL4-hPXR and GAL4-zfPXR were cultured in the same culture medium supplemented with 0.5 µg/mL puromycin.
(§3) The ability of chemicals to modulate the hPXR and zfPXR was investigated in HG5LN, HG5LN-hPXR, HG5LN-zfPXR, and ZFL-zfPXR cell lines after exposure to serial dilutions of the compounds and measurement of luciferase activity. […] Briefly, cells were seeded in 96-well white opaque flat bottom microplates at 0.5 10^5 cells per well in culture medium. […] Cells were then exposed to a concentration range of the compounds by using an automated workstation (Biomek 3000, Beckman Coulter). The final concentration of DMSO in the well never exceeds 0.1% (v/v). After 16h of exposure, medium was removed and 50 µL of test medium containing 0.3 mM D-luciferin were added per well. After 5 min, the production of light was assessed in living cells using microplate reader (MicroBeta, PerkinElmer SAS, Courtabœuf, France).
(§4) In the transactivation assay, each compound was tested at various concentrations in three independent experiments at least. For each experiment, tests were performed in quadruplicates for each concentration, and data are expressed by means values with standard deviations. […] This allowed to determine EC50 and IC50 values of tested chemicals.

Series [1] has as its target T2, zfPXR (Danio rerio, UniProt A5WYG8). The series can be described thus: HG5LN Gal4-zfPXR luciferase reporter gene assay, antagonism (coexposure with clotrimazole). Type of series: cell-based, zebrafish. How it is done: as §1, §2, §3, §4
Series [2] deals with T2, zfPXR. As to the kind of experiment: cell-based. The following applies: for zfPXR antagonism Min: ZFL-zfPXR, coexposure with 0.03 µM clotrimazole, % of maximal induced by 1 µM clotrimazole. Here is the method: as §3, §4
The target in series [3] is T2, zfPXR. As to the kind of experiment: HG5LN Gal4-zfPXR luciferase reporter gene assay, agonism. Type of series: cell-based, zebrafish. How it is done: as §1, §2, §3, §4
Series [4] concerns the target T2, zfPXR. As to the kind of experiment: cell-based. On the set-up: Emax: dose or concentration left out as unconfirmed. How it is done:
as §3, §4

Where [5] appears, read: HG5LN-hPXR, maximal activity at 10 µM, % of maximal induced by 3 µM SR 12813, DMSO 19 ± 6.
The mark [6] stands for this setting: HG5LN, read-out: zfPXR antagonism Min.
The mark [7] stands for this setting: read-out: zfPXR antagonism IC50.

T2 sequence (A5WYG8 entry or part of it): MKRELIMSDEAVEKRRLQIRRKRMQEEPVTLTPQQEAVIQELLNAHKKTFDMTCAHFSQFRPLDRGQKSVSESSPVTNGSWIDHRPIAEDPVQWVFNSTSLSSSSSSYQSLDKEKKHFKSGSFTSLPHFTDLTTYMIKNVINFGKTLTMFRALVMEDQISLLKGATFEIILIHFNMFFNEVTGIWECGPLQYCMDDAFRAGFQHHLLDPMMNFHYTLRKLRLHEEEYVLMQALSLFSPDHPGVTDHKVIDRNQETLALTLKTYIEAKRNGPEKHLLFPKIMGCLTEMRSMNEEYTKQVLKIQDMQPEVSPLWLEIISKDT

Turning to `CC1(C)[C@H](C(=O)O[C@H](C#N)c2cccc(Oc3ccccc3)c2)[C@@H]1C=C(Br)Br` [Deltamethrin], the response on hPXR was half-maximal at 1.8 ± 0.2 µM (EC50). The “hPXR agonism Max” value on hPXR (setting [5]) is 92%. The half-maximal inhibitory concentration (IC50) is 1.6 ± 0.2 µM against zfPXR [1] and 1.6 ± 0.06 µM against zfPXR [2]. Besides, the remaining activity at 10 µM on zfPXR [1] (setting [6]) was 21%. The “zfPXR antagonism Min” value at zfPXR [2] (minimal activity at 10 µM) was found to be 3%.
As for `C#C[C@]1(O)CC[C@H]2[C@@H]3CCC4=CCCC[C@@H]4[C@H]3C(=C)C[C@@]21CC` [Desogestrel, reference compound], the “hPXR agonism Max” value at hPXR is 54%. Further, the concentration for a half-maximal effect (EC50) was 0.13 ± 0.01 µM at zfPXR [3] (HG5LN-zfPXR cells, 16h exposure, n.a. = not active, read-out: zfPXR agonism EC50) and 0.07 ± 0.004 µM on zfPXR [4].
As to `C[C@]12CCC(=O)C=C1[C@@H]1C[C@@H]1[C@H]1[C@@H]3[C@@H]4C[C@@H]4[C@@]4(CCC(=O)O4)[C@@]3(C)CC[C@@H]12` [Drospirenone, reference compound], at hPXR (setting [5]), the “hPXR agonism Max” value is 44%. Besides, the remaining activity at 10 µM at zfPXR [1] (setting [6]) worked out at 52%. In addition, the IC50 at zfPXR [1] (setting [7]) came out at 3.6 ± 0.4 µM.
As for `OC(c1ccc(Cl)cc1)(c1cncnc1)c1ccccc1Cl` (centres unmarked) [Fenarimol], at hPXR, the concentration giving a half-maximal response (EC50) turned out to be 13 ± 2.2 µM. Also, on hPXR (setting [5]), the “hPXR agonism Max” value came out at 56%. Besides, at zfPXR [1], it took 24 ± 7.1 µM to reach half-maximal inhibition (IC50). In addition, the remaining activity at 10 µM on zfPXR [1] (setting [6]) is 66%.
Turning to `CC#C[C@]1(O)CC[C@H]2[C@@H]3CCC4=CC(=O)CCC4=C3[C@@H](c3ccc(N(C)C)cc3)C[C@@]21C` [Mifepristone, reference compound], the figures for the half-maximal inhibitory concentration (IC50) on zfPXR [1] and against zfPXR [2] were 0.08 ± 0.003 µM and 0.06 ± 0.004 µM, respectively. On zfPXR [2] (compounds marked *, not tested above 3 µM), the “zfPXR antagonism Min” value amounted to 5%.
Compound `CCOc1cc(Oc2ccc(C(F)(F)F)cc2Cl)ccc1[N+](=O)[O-]` [Oxyfluorfen] yielded an EC50 on hPXR of 3 ± 0.1 µM. Also, the “hPXR agonism Max” value on hPXR (setting [5]) was 86%. The same compound registered a concentration for half-maximal inhibition (IC50) against zfPXR [1] of 10 ± 1.2 µM. In addition, the remaining activity at 10 µM on zfPXR [1] (setting [6]) was 56%.
For the compound `CCC(CC)Nc1c([N+](=O)[O-])cc(C)c(C)c1[N+](=O)[O-]` [Pendimethalin], the EC50 on hPXR came out at 3 ± 0.1 µM; on zfPXR [3], 0.47 ± 0.1 µM; on zfPXR [4], 0.12 ± 0.01 µM. For the same compound, the “hPXR agonism Max” value on hPXR was found to be 91%. For the same compound, the Emax on zfPXR [4] (read-out: zfPXR agonism Max) turned out to be 92%.
`CCCN(CCOc1c(Cl)cc(Cl)cc1Cl)C(=O)n1ccnc1` [Prochloraz]: at hPXR, the half-maximal effective concentration (EC50) is 1.8 ± 0.1 µM and the “hPXR agonism Max” value was determined as 71%. On zfPXR [1], half-maximal inhibition (IC50) required 11 ± 5.6 µM.
On hPXR, `CC(=O)[C@H]1CC[C@H]2[C@@H]3CCC4=CC(=O)CC[C@]4(C)[C@H]3CC[C@]12C` [Progesterone, reference compound] returned an EC50 of 9.1 ± 2.2 µM. For the same compound, the remaining activity at 10 µM on zfPXR [1] (HG5LN; read-out: zfPXR antagonism Min) was 14%. Also, the half-inhibitory concentration (IC50) at zfPXR [1] (setting [7]) was determined as 0.64 ± 0.03 µM.
On to `CC(C)(C)C(O)(CCc1ccc(Cl)cc1)Cn1cncn1` (centres unmarked) [Tebuconazole], for which, at hPXR, the half-maximal effective concentration (EC50) was determined as 6.8 ± 0.4 µM. The “hPXR agonism Max” value at hPXR (setting [5]) is listed as 71%. In addition, the IC50 on zfPXR [1] came to 24 ± 4.3 µM. In addition, at zfPXR [1] (setting [6]), the remaining activity at 10 µM came out at 62%.
